{"source": "patent US6358736B1", "about": "“Method for increasing the antigen presenting ability of leukemia cells” (The United States of America as represented by the …, priority 1995, dated 2002)", "key": {"[1]": {"system": "pooled monocyte plus dendritic cell elutriation fractions", "assay": "FACS analysis of pooled 150-190 elutriation (APC) fractions after calcium ionophore activation", "type": "cell-based, human", "details": "500 ng A23187", "procedure": "Two patients were hooked up to Fenwal™ CS-3000 leukapheresis apparatus' running a Procedure 8 modification software program. Patient #1 had been previously diagnosed with colon cancer, and Patient #2 was a normal control. The Fenwal™ apparatus was configured to isolate a sample of neutrophil-depleted, platelet-rich cells from each patients' peripheral blood. After 3-5 hours of leukaphereis, the isolated blood cells from each patient were quickly spun down in a centrifuge and then rinsed in citrate buffer to remove any excess plasma, tumor related proteins or calcium.\nFollowing the citrate buffer rinse, the cells were resuspended in EDTA-free, Ca^++/Mg^++ HBSS. The isolated cells from each patient were then subject to elutriation on a Beckman™ JE-6B elutriation rotor. Once reaching a speed of 3000 rpm, 5×10^9 cells were elutriated by pressurized air at buffer flow rates of 120, 140, 150, 160, 170, 180, 190 and 200 cc/minute.\nEach fraction from both patients were immediately placed on ice to prevent cell adherence to the plastic walls of the collection vials. We coulter counted each of the fractions and discarded the r/o fraction because it had greater than a 10% contamination of neutrophils. The 150, 160, 170, 180 and 190 cc/min fractions from Patient #1 and Patient #2 were pooled then subject to calcium ionophore. The pooled fractions from each patient were divided in half, with one half being activated by 500 ng of calcium ionophore A23187 (Sigma), and one half being inactivated. From our previous experiments, we expected that the calcium ionophore treated cells would have a much higher number of dendritic cells due to conversion of monocytes to DCs. Prior to FACS analysis, we activated Patient #1's pooled fractions by incubating both the untreated and calcium ionophore treated cells for 40 hours in the presence of an autologous tumor cell lysate (the patients own tumor cells). Similarly, we activated Patient #2's pooled fractions by incubating both the untreated and calcium ionophore treated cells in the presence of keyhole limpet hemocyanin (KLH) for 40 hours.\nThe vast majority of cells stained in the pooled fractions were expected to be CD14+(ie: monocytes). The horizontal (X) axis of the FACS plot illustrated staining for DR, B7.1 or B72 surface antigens."}, "[2]": {"system": "monocyte subpopulation within PBMC", "assay": "FACS analysis of monocyte subpopulation in unfractionated PBMC", "type": "cell-based, human", "details": "A23187 750 ng/ml, 40 hours", "procedure": "(§1) PBMC were prepared by leukapheresis and Ficoll-Hypaque and placed in culture. Since the cells were never elutriated and no adherence step was performed, these cultures deliberately included large numbers of T, B, and NK lymphocytes as well as monocytes. The medium was our standard RPMI 10% human AB serum with antibiotics including amphotericin B. Cells were either untreated or treated for 40 hours with calcium ionophore A23187 750 ng/ml. Cells were then harvested and analyzed by FACS. Cells were stained with FITC conjugated anti-CD3, anti-CD40, anti-CD57, anti-CD 14, or the combination; in addition cells were stained with PE conjugated control antibodies, anti-B7.1, anti-B7.2, etc. In this way the effect of calcium ionophore treatment on each parameter could be clearly delineated."}, "[3]": {"system": "monocytes / dendritic cells cocultured with allogeneic T cells", "assay": "Allogeneic T cell sensitization (3H-thymidine) by treated monocytes/dendritic cells", "details": "A23187 750 ng/ml, 40 hours", "protocol": "Uncultured monocytes and DC were each purified from elutriation fractions using Miltenyi microsuperparamagnetic beads; monocytes were positively selected based on CD14 expression, while dendritic cells were negatively selected based on low CD14 expression, then positively selected based on CD33 (myeloid marker) expression. Each isolated fraction was cultured for 40 hours either in medium alone or in ionophore A23187 750 ng/ml, then harvested and either FACS analyzed or microcultured with freshly prepared allogeneic T lymphocytes. Graded numbers of the cultured monocytes or dendritic cells were added to fixed numbers of T cells to compare their antigen-presenting ability. Four days later the microcultures were pulsed with ^3H-dTr and harvested 18 hours later.\nMonocyte rich elutriation fractions were cultured for 40 hours with either no additives, ionophore A23187 750 ng/ml, or rhIlL-4 (1000 u/ml) and rhGM-CSF (20 ng/ml), a cytokine combination which leads monocytes to differentiate completely to dendritic cells during seven days of culture (Pickl et al, J. Immunol. 157:3850, 1996). MOMC were then harvested, irradiated (1000 rads) and cocultured in triplicate at various MOMC: T cell ratios with 10^5 allogeneic freshly prepared CD4^+ T cells in 0.2 ml RPMI with 5% AB plasma in 96 well tissue flat bottom culture plates. No cytokines were added during coculture. After 4 days [^3H]thymidine (1 μCi/well) was added and 18 hours later the wells were harvested and counted.\nMonocytes in monocyte rich elutriation fractions (90-93% monocytes) were further purified using Miltenyi microsuperparagnetic beads coupled to anti-CD14. After incubation with these beads cells were applied to a magnetized column to positively select the strongly CD14^pos cells, and were enriched to >98% purity. Unpurified or purified monocytes were cultured for 40 hours in our standard culture medium with 750 ng/ml ionophore A23187, then harvested. The recovered cells were either immediately FACS analyzed or added in graded numbers to freshly prepared allogeneic T cells to assay their antigen presenting function. Four days later, the T cell cultures were pulsed with ^3H-TdR (tritiated thymidine) and harvested 18 hours later."}, "[4]": {"system": "NK subpopulation within the PBMC", "assay": "FACS analysis of NK subpopulation in unfractionated PBMC", "type": "cell-based, human", "details": "A23187 750 mg/ml, 40 hours", "procedure": "as §1, with “cultures” for “cultures deliberately”, “[…].” for “ng/ml.”, “anti-CD14,” for “anti-CD 14,”"}, "[5]": {"system": "T lymphocyte subpopulation within the PBMC", "assay": "FACS analysis of T lymphocyte subpopulation in unfractionated PBMC", "type": "cell-based, human", "details": "A23187 750 mg/ml, 40 hours", "procedure": "as §1, with “cultures” for “cultures deliberately”, “[…].” for “ng/ml.”, “anti-CD14,” for “anti-CD 14,”"}, "[6]": {"system": "B cell subpopulation within the PBMC", "assay": "FACS analysis of B cell subpopulation in unfractionated PBMC", "type": "cell-based, human", "details": "A23187 750 mg/ml, 40 hours", "procedure": "as §1, with “cultures” for “cultures deliberately”, “[…].” for “ng/ml.”, “anti-CD14,” for “anti-CD 14,”"}, "[7]": {"system": "HL-60 cells cocultured with allogeneic naive T cells", "assay": "T cell allosensitization by irradiated treated HL-60 cells (3H-TdR)", "type": "cell-based, human", "details": "A23187 180 ng/ml with or without rhGM-CSF 20 ng/ml and IFN-gamma 1000 u/ml, three days", "protocol": "Fresh allogeneic naive (CD45R0 negative) T cells were prepared and cocultured with graded numbers of irradiated (3000R) HL-60 cells treated under the above-described conditions. Four days later the cultures were pulsed with ^3H-TdR (tritiated thymidine) and harvested 18 hours later.\nCells were harvested after three days, irradiated (3000R), then FACS analyzed or cocultured in graded numbers with freshly prepared naive (CD45RO negative) T lymphocytes. Allosensitization was assessed by pulsing at day 4 with ^3H-TdR and harvesting 18 hours later."}, "[8]": {"details": "colon cancer patient, 40 hours with autologous tumor cell lysate"}, "[9]": {"details": "normal donor, 40 hours with KLH"}}, "data": [{"compound": "CNc1ccc2oc(C[C@H]3O[C@@]4(CC[C@H]3C)O[C@H]([C@H](C)C(=O)c3ccc[nH]3)[C@H](C)C[C@H]4C)nc2c1C(=O)O", "note": "[A23187]", "values": [{"measurement": "B7.1 expression", "setting": "[1]; [8]", "value": "substantial but less uniform upregulation of B7.1"}, {"measurement": "HLA-DR and B7.2 expression", "setting": "[1]; [8]", "value": "marked upregulation of HLA-DR and B7.2"}, {"measurement": "conversion of cells to cocktail negative (dendritic) phenotype", "setting": "[1]; [8]", "value": "vast majority of cells were now converted to cocktail negative"}, {"measurement": "HLA-DR, B7.1 and B7.2 expression", "setting": "[1]; [9]", "value": "markedly upregulated for HLA-DR, B7.1 and B7.2"}, {"measurement": "conversion of cells to cocktail (CD3, CD14, CD20, CD56) negative (dendritic) phenotype", "setting": "[1]; [9]", "value": "vast majority of these cells was now cocktail negative"}, {"measurement": "CD14 expression", "setting": "[2]", "value": "downregulation of CD14 to a background level"}, {"measurement": "increase of B7.1 expression", "setting": "[2]", "value": "seven"}, {"measurement": "increase of B7.2 expression", "setting": "[2]", "value": 10, "unit": "fold"}, {"measurement": "increase of CD40 expression", "setting": "[2]", "value": 7, "unit": "fold"}, {"measurement": "increase of CD83 expression", "setting": "[2]", "value": 11, "unit": "fold"}, {"measurement": "increase of HLA-DR expression", "setting": "[2]", "value": 9, "unit": "fold"}, {"measurement": "increase of ICAM-1 expression", "setting": "[2]", "value": 4.5, "unit": "fold"}, {"measurement": "T cell sensitizing capacity of purified monocytes vs prepurified fraction cells", "setting": "[3]", "value": "enhanced T cell sensitizing capacity identical on a cell numbers basis"}, {"measurement": "T cell sensitizing capacity of treated monocytes (allogeneic CD4+ T cells)", "setting": "[3]; graded numbers", "value": "much greater T cell sensitizing capacity"}, {"measurement": "T cell sensitizing efficiency of purified DC", "setting": "[3]; vs untreated", "value": "only a modest increase"}, {"measurement": "T cell sensitizing efficiency of purified monocytes", "setting": "[3]; vs untreated", "value": "a more marked enhancement"}, {"measurement": "upregulation of surface markers", "setting": "[4]", "value": "negligible upregulation of surface markers"}, {"measurement": "B7.2 upregulation over culture without ionophore", "setting": "[5]", "value": 10, "unit": "fold"}, {"measurement": "CD40 upregulation", "setting": "[5]", "value": 4, "unit": "fold"}, {"measurement": "HLA-DR upregulation", "setting": "[5]", "value": 6, "unit": "fold"}, {"measurement": "ICAM-1 upregulation", "setting": "[5]", "value": 3.3, "unit": "fold"}, {"measurement": "B7.1 and B7.2 expression", "setting": "[6]", "value": "a subpopulation of B cells developed marked B71 and B72 expression"}, {"measurement": "allostimulation of naive T cells", "setting": "[7]", "value": "significantly allostimulatory"}]}]}
